Reference: ChEMBL document CHEMBL1143543, “Potent 1,3,4-trisubstituted pyrrolidine CCR5 receptor antagonists: effects of fused heterocycles on antiviral activity and pharmacokinetic properties” (Bioorg Med Chem Lett, 2005)

Columns and labels:
[1] = system: Human immunodeficiency virus 1; experiment: Antiinfective activity in HeLa cells against HIV-1(BAL) in the presence of 50% of human serum; format: functional; conditions: Human immunodeficiency virus 1, HeLa
[2] = system: Human immunodeficiency virus 1; experiment: Antiinfective activity in HeLa cells against HIV-1(BAL) in the absence of 50% of human serum; format: functional; conditions: Human immunodeficiency virus 1, HeLa
[3] = biological target: C-C chemokine receptor type 5 (Homo sapiens, UniProt P51681); experiment: Displacement of [125I]-MIP-1 alpha from human C-C chemokine receptor type 5 expressed on CHO cell membranes
Sequence of C-C chemokine receptor type 5 (P51681 whole entry): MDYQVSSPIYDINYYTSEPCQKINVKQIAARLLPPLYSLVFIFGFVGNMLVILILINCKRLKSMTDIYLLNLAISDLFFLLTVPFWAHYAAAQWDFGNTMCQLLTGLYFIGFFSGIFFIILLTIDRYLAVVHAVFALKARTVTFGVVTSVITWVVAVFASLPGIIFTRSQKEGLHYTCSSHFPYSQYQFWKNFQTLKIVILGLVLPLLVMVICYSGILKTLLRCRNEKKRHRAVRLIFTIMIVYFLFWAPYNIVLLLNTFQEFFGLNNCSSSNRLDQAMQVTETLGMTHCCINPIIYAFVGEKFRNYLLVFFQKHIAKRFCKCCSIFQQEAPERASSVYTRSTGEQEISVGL

[4] = Plasma clearance in rat; format: ADME, organism-based; conditions: read-out: Clp
[5] = Half life in rat; format: ADME; conditions: in vivo
[6] = Bioavailability in rat; format: ADME, organism-based; conditions: in vivo
[7] = Oral bioavailability in rat; format: ADME, organism-based; conditions: in vivo
[8] = Inhibitory concentration against PBM cells; format: functional; conditions: PBMC
[9] = biological target: Voltage-gated inwardly rectifying potassium channel KCNH2 (Homo sapiens, UniProt Q12809); experiment: Inhibitory activity against human Potassium channel HERG
Sequence of Voltage-gated inwardly rectifying potassium channel KCNH2 (Q12809 whole entry): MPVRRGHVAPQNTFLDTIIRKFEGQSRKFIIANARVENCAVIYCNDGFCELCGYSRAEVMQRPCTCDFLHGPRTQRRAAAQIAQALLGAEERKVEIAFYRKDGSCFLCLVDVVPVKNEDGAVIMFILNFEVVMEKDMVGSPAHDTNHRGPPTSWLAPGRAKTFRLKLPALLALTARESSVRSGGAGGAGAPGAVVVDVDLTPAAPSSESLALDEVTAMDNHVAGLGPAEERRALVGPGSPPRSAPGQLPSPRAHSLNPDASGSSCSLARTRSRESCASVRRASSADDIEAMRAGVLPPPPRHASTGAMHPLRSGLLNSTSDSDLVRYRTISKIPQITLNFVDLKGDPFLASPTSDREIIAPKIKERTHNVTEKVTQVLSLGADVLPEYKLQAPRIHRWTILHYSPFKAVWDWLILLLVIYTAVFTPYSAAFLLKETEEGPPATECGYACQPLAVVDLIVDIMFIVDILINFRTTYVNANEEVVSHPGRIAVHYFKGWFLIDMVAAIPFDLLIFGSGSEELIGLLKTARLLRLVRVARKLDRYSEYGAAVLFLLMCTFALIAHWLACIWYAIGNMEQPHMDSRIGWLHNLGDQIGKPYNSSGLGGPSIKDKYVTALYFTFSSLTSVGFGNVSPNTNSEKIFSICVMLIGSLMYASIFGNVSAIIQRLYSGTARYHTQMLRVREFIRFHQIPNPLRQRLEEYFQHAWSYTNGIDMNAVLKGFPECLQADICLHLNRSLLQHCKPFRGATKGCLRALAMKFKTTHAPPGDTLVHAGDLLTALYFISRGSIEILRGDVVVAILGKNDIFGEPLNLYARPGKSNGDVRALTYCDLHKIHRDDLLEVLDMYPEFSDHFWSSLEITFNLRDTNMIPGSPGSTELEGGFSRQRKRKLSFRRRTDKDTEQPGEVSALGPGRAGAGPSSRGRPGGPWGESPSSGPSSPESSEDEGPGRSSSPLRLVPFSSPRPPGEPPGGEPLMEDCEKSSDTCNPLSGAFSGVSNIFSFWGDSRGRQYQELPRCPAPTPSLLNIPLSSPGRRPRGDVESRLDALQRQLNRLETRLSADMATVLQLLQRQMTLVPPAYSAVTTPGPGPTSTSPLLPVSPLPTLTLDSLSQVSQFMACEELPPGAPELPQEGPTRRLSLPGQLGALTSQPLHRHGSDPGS

[10] = biological target: Voltage-gated L-type calcium channel (Homo sapiens, UniProt Q13936+Q13698+Q01668+O60840); experiment: Inhibitory concentration against L-type [Ca2+] channel; format: protein assay

O=C(O)[C@@H](C1CCCCC1)N1C[C@H](CN2CCC(Cn3cnc4ccccc43)CC2)[C@@H](c2ccccc2)C1
IC90 [1]: > 300 nM | IC90 [2]: 100 nM | IC50 [3]: 6.3 nM

O=C(O)[C@@H](CC1CCC1)N1C[C@H](CN2CCC(c3cnc4ccc([N+](=O)[O-])cn34)CC2)[C@@H](c2cccc(F)c2)C1
clearance [4]: 120 mL/min/kg | half-life [5]: 12 min | bioavailability [6]: 61% | IC90 [1]: 300 nM | IC90 [2]: 100 nM | IC50 [3]: 0.6 nM

O=C(O)[C@@H](CC1CCC1)N1C[C@H](CN2CCC(c3cnc4cnccn34)CC2)[C@@H](c2cccc(F)c2)C1
IC90 [1]: 100 nM | IC90 [2]: 11 nM | IC50 [3]: 1 nM

O=C(O)[C@@H](CC1CCC1)N1C[C@H](CN2CCC(c3cnc4c(Cl)cc(Cl)cn34)CC2)[C@@H](c2cccc(F)c2)C1
clearance [4]: 20 mL/min/kg | half-life [5]: 24 min | bioavailability [6]: 39% | IC90 [1]: 300 nM | IC90 [2]: 33 nM | IC50 [3]: 0.5 nM

O=C(O)[C@@H](C1CCCCC1)N1C[C@H](CN2CCC(n3cnc4ncccc43)CC2)[C@@H](c2ccccc2)C1
IC50 [3]: 23 nM

O=C(O)[C@@H](C1CCCCC1)N1C[C@H](CN2CCC(n3nnc4ccccc43)CC2)[C@@H](c2ccccc2)C1
IC90 [2]: 100 nM | IC50 [3]: 8.2 nM

O=C(O)[C@@H](CC1CCC1)N1C[C@H](CN2CCC(c3cnc4ccc(F)cn34)CC2)[C@@H](c2cccc(F)c2)C1
clearance [4]: 19 mL/min/kg | half-life [5]: 48 min | bioavailability [6]: 38% | IC90 [1]: 300 nM | IC90 [2]: 3.7 nM | IC50 [3]: 0.3 nM

O=C(O)[C@@H](CC1CCC1)N1C[C@H](CN2CCC(c3cn4cccnc4n3)CC2)[C@@H](c2ccccc2)C1
IC50 [3]: 200 nM

O=C(O)[C@@H](CC1CCC1)N1C[C@H](CN2CCC(c3nnc4ccccn34)CC2)[C@@H](c2ccccc2)C1
IC90 [1]: > 300 nM | IC90 [2]: 100 nM | IC50 [3]: 12 nM

O=C(O)[C@@H](C1CCCCC1)N1C[C@H](CN2CCC(n3cnc4ccccc43)CC2)[C@@H](c2ccccc2)C1
bioavailability [7]: < 2% | IC90 [1]: 100 nM | IC90 [2]: 11 nM | IC50 [3]: 2.5 nM

O=C(O)[C@@H](C1CCCCC1)N1C[C@H](CN2CCC(n3cnc4cccnc43)CC2)[C@@H](c2ccccc2)C1
IC90 [2]: 33 nM | IC50 [3]: 2.8 nM

O=C(O)[C@@H](C1CCCCC1)N1C[C@H](CN2CCC(n3cnc(=O)c4ccccc43)CC2)[C@@H](c2ccccc2)C1
IC50 [3]: 100 nM

O=C(O)[C@@H](C1CCCCC1)N1C[C@H](CN2CCC(n3c(=O)[nH]c4ccccc43)CC2)[C@@H](c2ccccc2)C1
IC50 [3]: 63 nM

O=C(O)[C@@H](CC1CCC1)N1C[C@H](CN2CCC(c3cnc4cccnn34)CC2)[C@@H](c2cccc(F)c2)C1
IC90 [1]: 300 nM | IC90 [2]: 11 nM | IC50 [3]: 3 nM

Cc1cc(C)n2ncc(C3CCN(C[C@H]4CN([C@H](CC5CCC5)C(=O)O)C[C@@H]4c4cccc(F)c4)CC3)c2n1
IC90 [1]: > 300 nM | IC90 [2]: > 300 nM | IC50 [3]: 7 nM

O=C(O)[C@@H](CC1CCC1)N1C[C@H](CN2CCC(c3cn4ccncc4n3)CC2)[C@@H](c2cccc(F)c2)C1
IC90 [1]: 300 nM | IC90 [2]: 300 nM | IC50 [3]: 29 nM

O=C(O)[C@@H](C1CCCCC1)N1C[C@H](CN2CCC(c3c[nH]c4ccccc34)CC2)[C@@H](c2ccccc2)C1
IC50 [3]: 10 nM

O=C(O)[C@@H](CC1CCC1)N1C[C@H](CN2CCC(CCCc3ccccc3)CC2)[C@@H](c2ccccc2)C1
IC95 [8]: < 8 nM

CCc1ccn2c(C3CCN(C[C@H]4CN([C@H](CC5CCC5)C(=O)O)C[C@@H]4c4cccc(F)c4)CC3)cnc2c1
clearance [4]: 67 mL/min/kg | half-life [5]: 150 min | bioavailability [6]: 11% | IC90 [1]: 11 nM | IC90 [2]: 0.13 nM | IC50 [3]: 0.35 nM

O=C(O)[C@@H](CC1CCC1)N1C[C@H](CN2CCC(c3cnc4ccc(C(F)(F)F)cn34)CC2)[C@@H](c2cccc(F)c2)C1
clearance [4]: 18 mL/min/kg | half-life [5]: 48 min | IC50 [9]: < 10000 nM | IC50 [10]: > 10000 nM | bioavailability [6]: 26% | IC90 [1]: 300 nM | IC90 [2]: 11 nM | IC50 [3]: 0.82 nM

O=C(O)[C@@H](C1CCCCC1)N1C[C@H](CN2CCC(n3cnc4ccccc4c3=O)CC2)[C@@H](c2ccccc2)C1
IC50 [3]: 12 nM

O=C(O)[C@@H](CC1CCC1)N1C[C@H](CN2CCC(c3cnc4ccccn34)CC2)[C@@H](c2cccc(F)c2)C1
clearance [4]: 38 mL/min/kg | half-life [5]: 126 min | IC50 [10]: > 10000 nM | bioavailability [6]: 4% | IC90 [1]: 33 nM | IC90 [2]: 1.2 nM | IC50 [3]: 0.42 nM

O=C(O)[C@@H](CC1CCC1)N1C[C@H](CN2CCC(c3cnc4ccc(-c5ccccc5)cn34)CC2)[C@@H](c2cccc(F)c2)C1
clearance [4]: 83 mL/min/kg | half-life [5]: 96 min | bioavailability [6]: 19% | IC90 [1]: 300 nM | IC90 [2]: 11 nM | IC50 [3]: 0.8 nM

O=C(O)[C@@H](C1CCCCC1)N1C[C@H](CN2CCC(CCn3cnc4ccccc43)CC2)[C@@H](c2ccccc2)C1
IC90 [1]: > 300 nM | IC90 [2]: 100 nM | IC50 [3]: 2.6 nM

O=C(O)[C@@H](CC1CCC1)N1C[C@H](CN2CCC(c3ncc4ccccn34)CC2)[C@@H](c2cccc(F)c2)C1
IC90 [1]: > 300 nM | IC90 [2]: > 300 nM | IC50 [3]: 13 nM

O=C(O)[C@@H](C1CCCCC1)N1C[C@H](CN2CCC(CCCn3cnc4ccccc43)CC2)[C@@H](c2ccccc2)C1
bioavailability [7]: < 2% | IC90 [1]: 33 nM | IC90 [2]: 1.2 nM | IC50 [3]: 0.84 nM

O=C(O)[C@@H](CC1CCC1)N1C[C@H](CN2CCC(c3cn4ccccc4n3)CC2)[C@@H](c2cccc(F)c2)C1
IC50 [3]: 65 nM

O=C(O)[C@@H](CC1CCC1)N1C[C@H](CN2CCC(c3cnc4ccc(Cl)cn34)CC2)[C@@H](c2cccc(F)c2)C1
clearance [4]: 16 mL/min/kg | half-life [5]: 42 min | IC50 [10]: > 10000 nM | bioavailability [6]: 26% | IC90 [1]: 100 nM | IC90 [2]: 1.2 nM | IC50 [3]: 0.89 nM

O=C(O)[C@@H](CC1CCC1)N1C[C@H](CN2CCC(c3cnc4ncccn34)CC2)[C@@H](c2cccc(F)c2)C1
IC90 [1]: 100 nM | IC90 [2]: 33 nM | IC50 [3]: 3.5 nM
